Columns and labels:
Plasmodium falciparum [1] = experiment: Antimalarial activity against chloroquine-resistant Plasmodium falciparum W2 after 48 hrs by LDH reporter assay; assay type: functional, organism-based; settings: W2, 48 h
Plasmodium falciparum [2] = experiment: Antimalarial activity against chloroquine-sensitive Plasmodium falciparum D6 after 48 hrs by LDH reporter assay; assay type: functional, organism-based; settings: D6, 48 h

| SMILES | IC50 (Plasmodium falciparum [1]; read-out: IC50) [µM] | IC50 (Plasmodium falciparum [2]; read-out: IC50) [µM] | IC50 (Plasmodium falciparum [1]; read-out: pIC50 (converted)) [µM] | IC50 (Plasmodium falciparum [2]; read-out: pIC50 (converted)) [µM] |
| --- | --- | --- | --- | --- |
| C[C@@H]1CC[C@H]2[C@@H](C)C(=O)O[C@@H]3O[C@@]4(C)CC[C@@H]1[C@]32OO4 [ARTEMISININ] | 0.001 | 0.009 | – | – |
| O=C(CCCCCCCC(=O)NO)NO [AZELAIC BIS HYDROXAMIC ACID] | 3.9 | 5.5 | 3.89 | 5.5 |
| O=C(NO)c1ccccc1O [SALICYLHYDROXAMIC ACID] | 51.3 | 35.7 | 51.3 | 35.5 |
| O=C(CCCCCCC(=O)NO)NO [SUBEROHYDROXAMIC ACID] | 1.53 | 2.23 | 1.51 | 2.24 |
| CC(/C=C/C(=O)NO)=C\[C@@H](C)C(=O)c1ccc(N(C)C)cc1 [TRICHOSTATIN] | 0.01 | 0.0156 | 0.00977 | 0.0155 |

Source: ChEMBL document CHEMBL1157182, “Structural insights into the Plasmodium falciparum histone deacetylase 1 (PfHDAC-1): A novel target for the development of antimalarial therapy” (Bioorg Med Chem, 2008)
